Consider 2 molecules from publication PMC5790502, “The anti-rheumatic drug, leflunomide, synergizes with MEK inhibition to suppress melanoma growth” (Oncotarget, 2017).

What is called IC50 is the concentration needed to halve the response being measured. For orientation: viability means a read-out of living cells in per cent, often relative to untreated cells.

The test system of one test is A375 melanoma cells. Briefly: Cell viability assay (CellTiter-Glo). The class given is cell-based. As to conditions: Homo sapiens, A-375, 72 hours treatment. On the procedure:
(§1) Cells that had been seeded 24 hours earlier on poly-L-lysine coated 96-well plates (Sigma-Aldrich) to subconfluency, were treated with drugs at the indicated concentrations for 72 hours. Cytochalasin D (Sigma Aldrich) was used as a positive control. All conditions were repeated in triplicate. Cell viability was determined on day 5 using the CellTiter-Glo Luminescence assay (Promega), according to the manufacturer’s instructions. Luminescence from the plate was read on a BMG LabTech Omega Series plate reader (data analyzed using OMEGA software). Cell viability was calculated as a percentage of the mean vehicle control.
(§2) For pharmacological analysis, IC50 values were generated using Prism Graphpad software (Graphpad Software, Inc.) and calculated using a nonlinear regression model. Combinatorial drug synergy was assessed by determination of combination index (CI), which was calculated using CalcuSyn (Biosoft) software using the median effects methods as described by Chou and Talalay, CI values less than 0.7 indicated synergy, 0.7–0.9 weak synergy, 0.9–1.1 additivity, 1.1–1.45 indicated weak antagonism and greater than 1.45 antagonism.

For another test, the system named is M202 melanoma cells. Briefly: Cell viability assay (CellTiter-Glo). The format is cell-based. Conditions: Homo sapiens, 72 hours treatment. The protocol:
as §1, §2

The test system of a further test is M229 melanoma cells. Kind of test: Cell viability assay (CellTiter-Glo). The class given is cell-based. As to conditions: Homo sapiens, 72 hours treatment. The protocol:
as §1, §2
On the technique in general: In ATP-based viability assays light output follows the ATP content of the culture.

A further test has as its system M285 melanoma cells. Briefly: Cell viability assay (CellTiter-Glo). The format is cell-based. As to conditions: Homo sapiens, 72 hours treatment. The protocol:
as §1, §2

The test system of the next test is M296 melanoma cells. Kind of test: Cell viability assay (CellTiter-Glo). The class given is cell-based. Conditions: Homo sapiens, 72 hours treatment. On the procedure: as §1, §2
The subject of the next test is M375 melanoma cells. Kind of test: Cell viability assay (CellTiter-Glo). The format is cell-based. As to conditions: Homo sapiens. The protocol: as §1, §2
For another test, the system named is SKmel28 melanoma cells. Kind of test: Cell viability assay (CellTiter-Glo). The class given is cell-based. Conditions: Homo sapiens, SK-MEL-28, 72 hours treatment. On the procedure: as §1, §2
The next test deals with SKmel5 melanoma cells. Kind of test: Cell viability assay (CellTiter-Glo). The class given is cell-based. Conditions: Homo sapiens; for IC50: SK-MEL-5, 72 hours treatment. The protocol: as §1, §2
Test [1] concerns rhabdomyosarcoma cells (RD-1). Kind of test: Cell viability assay (CellTiter-Glo). The format is cell-based. As to conditions: Homo sapiens. The protocol:
as §1, §2

In another test the test system is phospho-ERK. Briefly: Western blot of phospho-ERK. The class given is cell-based, human. As to conditions: A375 and M202 cells; 0.1 or 1 µM selumetinib. On the procedure:
A375 melanoma cells were seeded and treated for 72 hours in varying drug conditions. Total protein extracts were then made using high SDS content lysis buffer (60 mM sucrose, 65 mM Tris-HCl, pH 6.8. 3% SDS). Protein concentration was determined using the DC protein assay (BIORAD). 10 μg of whole-cell protein lysate was loaded onto a 10% SDS-PAGE gel and transferred onto polyvinylidene difluoride membranes (Bio-Rad). A standard Western blot protocol was used for detection of the specific proteins as previously described.
Antibodies used included; Rabbit polyclonal phospho-ERK (1:1000, Cell Signalling Technology); Rabbit polyclonal phospho-p44/42 MAPK (1:1000, ERK1/2; Cell Signalling Technology); Mouse monoclonal HSC-70 (1:1000, Santa-Cruz Biotechnology); Rabbit polyclonal Mcl-1 (1:500, Santa-Cruz Biotechnology); Rabbit polyclonal anti-BIM (1:500, Merck-Millipore); Rabbit polyclonal PARP (1:1000, Cell Signalling Technology); Rabbit polyclonal PUMA (1:1000, Cell Signalling Technology); anti-rabbit IgG HRP linked secondary antibody (1:2000, Jackson ImmunoResearch); Anti-mouse IgG HRP linked secondary antibody (1:2000, Jackson ImmunoResearch); All anti-rabbit IgG HRP linked secondary antibody (1:2000, Cell Signalling Technology).
On the technique in general: Immunoblotting shows a protein as a band on a membrane.

For a further test, the system named is M375 melanoma tumors. Briefly: Mouse xenograft study. Conditions: M375 xenograft in SCID mice, 12 days; leflunomide 7.5 mg/kg IP daily, selumetinib 30 mg/kg OG; vs vehicle control. The class given is in vivo. On the procedure: 8–10-week-old female severe immunodeficiency (SCID) mice were purchased from Charles River Laboratories. All procedures were performed under UK Home Office approved protocols and the University of East Anglia local guidelines. Experiments were conducted strictly in accordance with the locally approved animal handling protocol.
A total of 3 × 10^6 M375 melanoma cells were injected subcutaneously into 40 SCID mice. After approximately 4 weeks when the tumors were palpable, the mice were randomized into 4 arms. The 4 arms were; vehicle alone, leflunomide alone, selumetinib alone and leflunomide and selumetinib in combination. There were 10 mice in each arm. The drug regime was administered for 12 days. Leflunomide was administered by intraperitoneal (IP) injection daily at 7.5 mg/kg. Selumetinib was administered by oral gavage (OG) twice daily at 30 mg/kg for the first two days and was then delivered once daily thereafter. The tumor volume was measured every three days with calipers. Tumor volume was measured by the formula 0.52 (length × width^2). At the end of the experiment, the mice were culled and the excised tumors were weighed.

With `Cn1cnc2c(F)c(Nc3ccc(Br)cc3Cl)c(C(=O)NOCCO)cc21` [Selumetinib, selumetinib], the IC50 came to 190 nM in the test with A375 melanoma cells; 500 nM in the test on M202 melanoma cells; 200 nM in the test on M229 melanoma cells; 500 nM with M285 melanoma cells; 470 nM in the test with M296 melanoma cells; 100 nM in the test with M375 melanoma cells (M375, 72 hours treatment). The IC50 with M375 melanoma cells (M375 melanoma cell line, Meki alone, combinatorial viability study (Figure 4A(i))) worked out at 64 nM; with SKmel28 melanoma cells, 430 nM; in the test on SKmel5 melanoma cells, 1010 nM; in test [1] (RD1, 72 hours treatment), 1050 nM. Further, the viability at 1 µM with SKmel5 melanoma cells (SK-MEL-5, 1 μM selumetinib, read-out: cell viability (relative to vehicle control)) amounted to 51.8%; in [1] (RD1, 1 μM selumetinib, read-out: cell viability (relative to vehicle control)), 55%. For the same molecule, the “amount of pERK protein” value with phospho-ERK was “decreases in a dose-dependent manner”. Moreover, the tumor volume result with M375 melanoma tumors is given as “significantly reduced the average tumor volume”.
In the case of `CCCS(=O)(=O)Nc1ccc(F)c(C(=O)c2c[nH]c3ncc(-c4ccc(Cl)cc4)cc23)c1F` [Vemurafenib, vemurafenib], the IC50 in the test with A375 melanoma cells stood at 700 nM; in the test on M202 melanoma cells it was 1700 nM; in the test on M229 melanoma cells it was 300 nM; with M296 melanoma cells, 2000 nM; in the test with SKmel28 melanoma cells, 800 nM; in the test with SKmel5 melanoma cells it was 150 nM.
